Activity calls are given as the source filed them. The calls are words filed in the database; no cut-off is given here.
Assays:
Jurkat [1] = experiment: Antiproliferative activity against human Jurkat cells assessed as inhibition of cell growth measured after 72 hrs by XTT assay; type: functional, cell-based
MIA PaCa-2 = experiment: Antiproliferative activity against human MIA PaCa-2 cells assessed as inhibition of cell growth measured after 72 hrs by XTT assay; type: functional, cell-based; settings: MIA PaCa-2, 72 h
PANC-1 [2] = experiment: Antiproliferative activity against human PANC-1 cells assessed as inhibition of cell growth measured after 72 hrs by XTT assay; type: functional, cell-based; settings: PANC-1, 72 h
BXPC-3 = experiment: Antiproliferative activity against human BXPC-3 cells assessed as inhibition of cell growth measured after 72 hrs by XTT assay; type: functional, cell-based; settings: BXPC-3, 72 h
PANC-1 [3] = experiment: Cytotoxicity against human PANC-1 cells assessed as reduction in cell viability measured after 72 hrs by resazurin staining based fluorescent plate reader; type: functional; settings: PANC-1, 72 h
Jurkat [4] = experiment: Induction of apoptosis in human Jurkat cells assessed as cell death at upto 1000 nM measured after 96 hrs by annexin V and 7AAD double staining based flow cytometry analysis; type: functional
Jurkat [5] = experiment: Induction of apoptosis in human Jurkat cells assessed as caspase-3 cleavage at 10 nM measured after 96 hrs by flow cytometry analysis; type: functional, cell-based
Jurkat [6] = experiment: Antiproliferative activity against human Jurkat cells assessed as reduction in cell viability at 10 nM incubated for 96 hrs in presence of NAD+ by annexin V and 7AAD double staining based flow cytometry analysis; type: functional
Jurkat [7] = experiment: Antiproliferative activity against human Jurkat cells assessed as reduction in cell viability at 10 nM incubated for 96 hrs in presence of NMN by annexin V and 7AAD double staining based flow cytometry analysis; type: functional

IC50 (Jurkat [1])	IC50 (MIA PaCa-2)	Compound	other results
20 nM	–	O=Cc1ccc(C(=O)N2CCC(CCCCNC(=O)/C=C/c3cccnc3)CC2)cc1	–
350 nM	–	O=C(/C=C/c1cccnc1)NCCCCC1CCN(C(=O)C2CCC(=O)N2)CC1 (centres undefined)	–
4.3 nM	3.9 nM	COc1ccc(OC)c(C(=O)N2CCC(CCCCNC(=O)/C=C/c3cccnc3)CC2)c1	IC50 (PANC-1 [2]): 2.8 nM; IC50 (BXPC-3): 13 nM
6.5 nM	24 nM	COc1cccc(OC)c1C(=O)N1CCC(CCCCNC(=O)/C=C/c2cccnc2F)CC1	IC50 (PANC-1 [2]): 5.7 nM
100 nM	–	O=C(/C=C/c1cccnc1)NC/C=C/C1CCN(C(=O)c2ccccc2)CC1	–
33 nM	69 nM	O=C(/C=C/c1ccnnc1)NCCCCC1CCN(C(=O)c2ccccc2)CC1	IC50 (BXPC-3): 19.4 nM
5.8 nM	3.9 nM	O=C(/C=C/c1cccnc1)NCCCCC1CCN(C(=O)c2ccccc2O)CC1	IC50 (PANC-1 [2]): 1.3 nM; IC50 (BXPC-3): 8.1 nM
28 nM	–	COc1ccc(C(=O)N2CCC(CCCCNC(=O)/C=C/c3cccnc3)CC2)c(OC)c1OC	–
35 nM	–	O=C(/C=C/c1cccnc1)NCCCCC1CCN(C(=O)C2CCCOC2)CC1 (centres undefined)	–
40 nM	–	O=Cc1cccc(C(=O)N2CCC(CCCCNC(=O)/C=C/c3cccnc3)CC2)c1	–
–	–	O=C(NCCCc1cn[nH]c1)c1ccc(-c2ccncc2)c(C#Cc2ccc(F)cc2)c1	EC50 (PANC-1 [3]): 3.5 nM
0.8 nM	3 nM	COc1cc(C=O)cc(OC)c1C(=O)N1CCC(CCCCNC(=O)/C=C/c2cccnc2F)CC1	IC50 (PANC-1 [2]): 16 nM; IC50 (BXPC-3): 53 nM
36 nM	–	O=C(/C=C/c1cccnc1)NCCCCC1CCN(C(=O)/C=C/c2ccccc2)CC1	–
0.6 nM	2.2 nM	O=C(/C=C/c1cccnc1)NCCCCC1CCN(C(=O)c2ccccc2)CC1 [DAPORINAD]	Activity (Jurkat [4]): Active; Activity (Jurkat [5]): Active; IC50 (PANC-1 [2]): 0.6 nM; IC50 (BXPC-3): 0.3 nM
30 nM	–	O=C(/C=C/c1cccnc1)NCCCCC1CCN(C(=O)C2CCOCC2)CC1	–
35 nM	25 nM	COc1cccc(OC)c1C(=O)N1CCC(CCCCNC(=O)/C=C/c2ccnnc2)CC1	IC50 (BXPC-3): 15.6 nM
10 nM	–	O=C(/C=C/c1cccnc1)NCCCCC1CCN(C(=O)c2ccc(F)cc2)CC1	–
400 nM	–	Cc1ccc(S(=O)(=O)N2CCC(CCCCNC(=O)/C=C/c3cccnc3)CC2)cc1	–
0.4 nM	0.25 nM	COc1cc(C=O)cc(OC)c1C(=O)N1CCC(CCCCNC(=O)/C=C/c2cccnc2)CC1	IC50 (PANC-1 [2]): 1.9 nM; IC50 (BXPC-3): 13 nM
100 nM	–	COc1ccc(C(=O)N2CCC(CCCCNC(=O)/C=C/c3cccnc3)CC2)cc1	–
30 nM	–	O=C(/C=C/c1cccnc1)NCCCCC1CCN(C(=O)C2CCCO2)CC1 (centres undefined)	–
> 1000 nM	–	COc1cccc(OC)c1C(=O)N1CCC(CCCCNC(=O)/C=C/c2cnccn2)CC1	–
800 nM	–	CC(=O)c1ccc(C(=O)N2CCC(CCCCNC(=O)/C=C/c3cccnc3)CC2)cc1	–
850 nM	–	CC(=O)c1cccc(C(=O)N2CCC(CCCCNC(=O)/C=C/c3cccnc3)CC2)c1	–
> 1000 nM	–	O=C(/C=C/c1cnccn1)NCCCCC1CCN(C(=O)c2ccccc2)CC1	–
800 nM	–	O=C(/C=C/c1cccnc1)NCCCOC1CCN(C(=O)c2ccccc2)CC1	–
2500 nM	–	O=C(/C=C/c1cccnc1Cl)NCCCCC1CCN(C(=O)c2ccccc2)CC1	–
10 nM	–	COc1cc(C(=O)N2CCC(CCCCNC(=O)/C=C/c3cccnc3)CC2)cc(OC)c1OC	–

IC50 (Jurkat [1])	IC50 (MIA PaCa-2)	Compound	other results
34 nM	–	O=C(/C=C/c1cccnc1)NCCCCC1CCN(C(=O)c2ccc(CO)cc2)CC1	–
2.3 nM	1 nM	COc1ccccc1C(=O)N1CCC(CCCCNC(=O)/C=C/c2cccnc2)CC1	Activity (Jurkat [4]): Active; Activity (Jurkat [5]): Active; IC50 (PANC-1 [2]): 0.08 nM; IC50 (BXPC-3): 0.5 nM; Activity (Jurkat [6]): inactive; Activity (Jurkat [7]): inactive
32 nM	–	O=C(/C=C/c1cccnc1)NCCCCC1CCN(C(=O)C2CCCCC2)CC1	–
5 nM	2.7 nM	COc1cccc(OC)c1C(=O)N1CCC(C/C=C/CNC(=O)/C=C/c2cccnc2)CC1	IC50 (PANC-1 [2]): 2.3 nM; IC50 (BXPC-3): 0.4 nM
18 nM	–	O=C(/C=C/c1cccnc1)NCCCCC1CCN(C(=O)Cc2ccccc2)CC1	–
32 nM	–	COc1ccc(C(=O)N2CCC(CCCCNC(=O)/C=C/c3cccnc3)CC2)cc1OC	–
3500 nM	–	O=C(/C=C/c1cccnc1)NCC(O)CCC1CCN(C(=O)c2ccccc2)CC1 (centres undefined)	–
2500 nM	–	O=C(/C=C/c1cccnc1)NCC1OC1CC1CCN(C(=O)c2ccccc2)CC1 (centres undefined)	–
50 nM	–	O=C(/C=C/c1cccnc1)NCCCCC1CCN(C(=O)C2CCCCO2)CC1 (centres undefined)	–
> 200 nM	–	O=C(/C=C/c1cccnc1)NCCC1CCN(C(=O)c2ccccc2)CC1	–
0.8 nM	0.5 nM	COc1cccc(OC)c1C(=O)N1CCC(CCCCNC(=O)/C=C/c2cccnc2)CC1	Activity (Jurkat [4]): Active; Activity (Jurkat [5]): Active; IC50 (PANC-1 [2]): 0.6 nM; IC50 (BXPC-3): 0.004 nM; Activity (Jurkat [6]): inactive; Activity (Jurkat [7]): inactive
10 nM	13 nM	O=C(/C=C/c1cccnc1)NC/C=C/CC1CCN(C(=O)c2ccccc2)CC1	IC50 (PANC-1 [2]): 8.6 nM; IC50 (BXPC-3): 34 nM
6.7 nM	13.5 nM	O=C(/C=C/c1ccc(F)nc1F)NCCCCC1CCN(C(=O)c2ccccc2)CC1	IC50 (PANC-1 [2]): 14 nM; IC50 (BXPC-3): 31 nM
73 nM	75 nM	COc1cccc(OC)c1C(=O)N1CCC(CCCCNC(=O)/C=C/c2ccc(F)nc2F)CC1	IC50 (PANC-1 [2]): 2 nM
2.3 nM	4 nM	O=C(/C=C/c1cccnc1F)NCCCCC1CCN(C(=O)c2ccccc2)CC1	–
28 nM	–	O=C(/C=C/c1cccnc1)NCCCCC1CCN(C(=O)CCc2ccccc2)CC1	–
9 nM	–	COc1cccc(C(=O)N2CCC(CCCCNC(=O)/C=C/c3cccnc3)CC2)c1	–
3 nM	0.8 nM	COc1cc(OC)c(C(=O)N2CCC(C/C=C/CNC(=O)/C=C/c3cccnc3)CC2)c(OC)c1	IC50 (PANC-1 [2]): 0.4 nM; IC50 (BXPC-3): 2.8 nM
68 nM	–	O=C(/C=C/c1cccnc1)NCCCCC1CCN(C(=O)c2ccc([N+](=O)[O-])cc2)CC1	–
2500 nM	–	O=C(/C=C/c1ccc(Cl)nc1Cl)NCCCCC1CCN(C(=O)c2ccccc2)CC1	–
850 nM	–	COc1cccc(OC)c1C(=O)N1CCC(OCCCNC(=O)/C=C/c2cccnc2)CC1	–
1 nM	0.16 nM	COc1cc(OC)c(C(=O)N2CCC(CCCCNC(=O)/C=C/c3cccnc3)CC2)c(OC)c1	Activity (Jurkat [4]): Active; Activity (Jurkat [5]): Active; IC50 (PANC-1 [2]): 0.9 nM; IC50 (BXPC-3): 1.7 nM; Activity (Jurkat [6]): inactive; Activity (Jurkat [7]): inactive
3.6 nM	4.5 nM	COc1cccc(C(=O)N2CCC(CCCCNC(=O)/C=C/c3cccnc3)CC2)c1OC	Activity (Jurkat [4]): Active; Activity (Jurkat [5]): Active; IC50 (PANC-1 [2]): 3.2 nM; IC50 (BXPC-3): 25 nM; Activity (Jurkat [6]): inactive; Activity (Jurkat [7]): inactive
16 nM	–	O=C(/C=C/c1cccnc1)NCCCCC1CCN(S(=O)(=O)c2ccccc2)CC1	–
100 nM	–	O=C(/C=C/c1ccc[n+]([O-])c1)NCCCCC1CCN(C(=O)c2ccccc2)CC1	–
8.4 nM	4 nM	COc1ccc(C(=O)N2CCC(CCCCNC(=O)/C=C/c3cccnc3)CC2)c(OC)c1	IC50 (PANC-1 [2]): 0.2 nM; IC50 (BXPC-3): 24 nM
> 1000 nM	–	O=C(/C=C/c1cccnc1)NCCCCC1CCN(C(=O)c2ccc(C(F)(F)F)cc2)CC1	–
